# Reference: patent US7338950B2, “Amide compounds as ion channel ligands and uses thereof” (Renovis, Inc., priority 2003, dated 2008)
# Tested on: VR1 receptor (293 cells expressing capsaicin-insensitive VR1 receptor variants)
# Assay: High throughput screening of VR1 antagonists using a calcium imaging assay (Fura2, pH 5.1 stimulus);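 note: Fura2 ratiometric fluorescence read every 4 s over 3 min, response taken as peak ratio minus baseline before pre-treatment, compound pre-treatment preceding acid challenge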
# Conditions: 1 uM compound; inhibition of calcium ion influx
# Source text: A dual wavelength ratiometric dye, Fura2, was used as an indicator of relative levels of calcium ions in a 96 well format using a bench top scanning fluorometer with integrated fluidics and temperature control (Flex Station, Molecular Devices).
# A dual wavelength ratiometric dye, Fura2, was used as an indicator of relative levels of [Ca2+] in a 96 well format using a bench top scanning fluorometer with integrated fluidics and temperature control (Flex Station, Molecular Devices).
# 293 cells were grown on PDL coated 96-well black-walled plates, in the presence of a DMEM medium containing 5% Penstrep, 5% Glutamax, 200 ug/mL Hygromycin, 5 μg/mL Blasticide and 10% heat inactivated FBS. Prior to assay, the cells were loaded with 5 μg/mL Fura2 in normal saline solution at 37° C. for 40 minutes. Cells were then washed with normal saline to remove the dye.
# The assay consists of two stages; a pre-treatment phase followed by a treatment phase.
# 50 μl of a compound solution was added to the cells (Pre-treatment). Immediately following, 50 μl of the test compound in a saline solution at pH 5.1 was added. […] Changes in wavelength measurements were made throughout the course of the experiment in 4 second intervals over a period of 3 minutes. Responses were measured as peak fluorescence ratio after test compound addition minus baseline fluorescence ratio prior to pre-treatment and were calculated using SoftMaxPro softwareData were expressed as percentage inhibition calculated using Excel as follows:
row,Compound,% Inhibition @ 1 uM
1,COc1cc(C(=O)Nc2cccc(C#N)c2)ccc1-c1ncccc1Cl [Compound 1218],++++ (compound exhibited 75% or greater inhibition of calcium ion influx induced by capsaicin stimulation)
2,O=C(Nc1ccc2cn[nH]c2c1)c1ccc(-c2ncccc2Cl)cc1 [Compound 1290],++ (compound exhibited 25-50% inhibition of calcium ion influx induced by capsaicin stimulation)
3,CN(C)c1cccc(NC(=O)c2ccc(-c3ncccc3Cl)cc2F)c1 [Compound 1086],+ (compound exhibited 0-25% inhibition of calcium ion influx induced by capsaicin stimulation)
4,O=C(Nc1ccncc1)c1ccc(-c2ncccc2Cl)cc1 [Compound 1024],++++ (compound exhibited 75% or greater inhibition of calcium ion influx induced by capsaicin stimulation)
5,CCCc1ccccc1NC(=O)c1ccc(-c2ncccc2Cl)c(F)c1 [Compound 1135],+ (compound exhibited 0-25% inhibition of calcium ion influx induced by capsaicin stimulation)
6,COc1cc(C(=O)Nc2ccc3cn[nH]c3c2)ccc1-c1ncccc1Cl [Compound 1264],++ (compound exhibited 25-50% inhibition of calcium ion influx induced by capsaicin stimulation)
7,O=C(Nc1ccc(Cl)nc1)c1ccc(-c2ncccc2Cl)c(F)c1 [Compound 1169],+ (compound exhibited 0-25% inhibition of calcium ion influx induced by capsaicin stimulation)
8,Cc1ccc(NC(=O)c2ccc(-c3ncccc3Cl)c(F)c2)c(C)c1 [Compound 1145],++++ (compound exhibited 75% or greater inhibition of calcium ion influx induced by capsaicin stimulation)
9,O=C(Nc1cccc(Cl)c1)c1ccc(-c2ncccc2Cl)cc1 [Compound 1029],+ (compound exhibited 0-25% inhibition of calcium ion influx induced by capsaicin stimulation)
10,Cc1cc(C)nc(NC(=O)c2ccc(-c3ncccc3Cl)cc2)c1 [Compound 1054],+ (compound exhibited 0-25% inhibition of calcium ion influx induced by capsaicin stimulation)
11,O=C(Nc1ccc2c(c1)OCO2)c1ccc(-c2ncccc2Cl)cc1 [Compound 1051],+ (compound exhibited 0-25% inhibition of calcium ion influx induced by capsaicin stimulation)
12,O=C(Nc1cccc(OC(F)(F)F)c1)c1ccc(-c2ncccc2Cl)cn1 [Compound 1361],++ (compound exhibited 25-50% inhibition of calcium ion influx induced by capsaicin stimulation)
13,CCN(CC)c1ccc(NC(=O)c2ccc(-c3ncccc3Cl)cc2)cc1 [Compound 1061],++++ (compound exhibited 75% or greater inhibition of calcium ion influx induced by capsaicin stimulation)
14,CCn1c2ccccc2c2cc(NC(=O)c3ccc(-c4ncccc4Cl)cn3)ccc21 [Compound 1345],++++ (compound exhibited 75% or greater inhibition of calcium ion influx induced by capsaicin stimulation)
15,O=C(Nc1ccc(Cl)nc1)c1ccc(-c2ncccc2Cl)cc1 [Compound 1048],+ (compound exhibited 0-25% inhibition of calcium ion influx induced by capsaicin stimulation)
16,CN(C)c1cccc(NC(=O)c2ccc(-c3ncccc3Cl)cc2)c1 [Compound 1060],++++ (compound exhibited 75% or greater inhibition of calcium ion influx induced by capsaicin stimulation)
17,O=C(Nc1ccncc1)c1ccc(-c2ncccc2Cl)cn1 [Compound 1330],+++ (compound exhibited 50-75% inhibition of calcium ion influx induced by capsaicin stimulation)
18,CN1CCCc2ccc(NC(=O)c3ccc(-c4ncccc4Cl)cc3)cc21 [Compound 1304],+ (compound exhibited 0-25% inhibition of calcium ion influx induced by capsaicin stimulation)
19,O=C(Nc1ccnc(Cl)c1)c1ccc(-c2ncccc2Cl)cc1 [Compound 1050],++++ (compound exhibited 75% or greater inhibition of calcium ion influx induced by capsaicin stimulation)
20,CCCCc1ccc(NC(=O)c2ccc(-c3ncccc3Cl)c(F)c2)cc1 [Compound 1144],++++ (compound exhibited 75% or greater inhibition of calcium ion influx induced by capsaicin stimulation)
21,COc1ccc(NC(=O)c2ccc(-c3ncccc3Cl)cn2)cn1 [Compound 1341],++ (compound exhibited 25-50% inhibition of calcium ion influx induced by capsaicin stimulation)
22,COc1cccc(NC(=O)c2ccc(-c3ncccc3Cl)cc2)c1 [Compound 1019],+ (compound exhibited 0-25% inhibition of calcium ion influx induced by capsaicin stimulation)
23,O=C(Nc1ccc(F)c(F)c1)c1ccc(-c2ncccc2Cl)c(F)c1 [Compound 1195],+++ (compound exhibited 50-75% inhibition of calcium ion influx induced by capsaicin stimulation)
24,COc1cc(C(=O)Nc2ccc(C)cc2C)ccc1-c1ncccc1Cl [Compound 1223],++++ (compound exhibited 75% or greater inhibition of calcium ion influx induced by capsaicin stimulation)
25,CCC(C)(C)NC(=O)c1ccc(-c2ncccc2Cl)cc1 [Compound 1070],+ (compound exhibited 0-25% inhibition of calcium ion influx induced by capsaicin stimulation)

# Molecular target: T1, VR1 receptor (capsaicin induced current in dorsal root ganglion (DRG) neurons) (Rattus norvegicus, UniProt O35433)
# T1 construct: Dorsal root ganglion (DRG) neurons were recovered from either neonatal or adult rats; endogenous in cells; host or cells: primary rat dorsal root ganglion neurons
# T1 sequence (O35433 whole entry): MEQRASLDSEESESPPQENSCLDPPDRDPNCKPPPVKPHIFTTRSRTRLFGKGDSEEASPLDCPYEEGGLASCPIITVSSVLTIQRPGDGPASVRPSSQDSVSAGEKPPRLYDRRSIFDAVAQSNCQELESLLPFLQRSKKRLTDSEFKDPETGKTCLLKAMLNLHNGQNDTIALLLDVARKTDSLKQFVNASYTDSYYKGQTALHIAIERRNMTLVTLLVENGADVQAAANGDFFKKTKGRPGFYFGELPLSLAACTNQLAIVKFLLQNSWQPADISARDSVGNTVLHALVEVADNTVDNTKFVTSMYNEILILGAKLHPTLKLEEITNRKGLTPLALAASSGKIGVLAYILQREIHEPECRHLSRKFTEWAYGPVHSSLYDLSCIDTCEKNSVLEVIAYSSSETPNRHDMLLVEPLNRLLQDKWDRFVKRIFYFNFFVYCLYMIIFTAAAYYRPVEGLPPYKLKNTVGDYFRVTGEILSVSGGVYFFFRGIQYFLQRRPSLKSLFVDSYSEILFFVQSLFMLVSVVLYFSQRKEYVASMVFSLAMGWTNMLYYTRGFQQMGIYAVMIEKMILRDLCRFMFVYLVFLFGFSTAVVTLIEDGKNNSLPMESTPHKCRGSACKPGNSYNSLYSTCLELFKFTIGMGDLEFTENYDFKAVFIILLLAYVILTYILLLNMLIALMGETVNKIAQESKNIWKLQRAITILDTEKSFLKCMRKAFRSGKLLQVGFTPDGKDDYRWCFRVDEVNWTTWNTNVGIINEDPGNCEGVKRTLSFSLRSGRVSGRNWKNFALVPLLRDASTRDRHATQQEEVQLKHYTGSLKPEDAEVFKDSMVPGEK
# Assay: Whole-cell patch clamp electrophysiology, capsaicin induced current in DRG neurons
# Type: cell-based
# Conditions: 20 nM, 40 nM, 100 nM and 200 nM
# Procedure: Dorsal root ganglion (DRG) neurons were recovered from either neonatal or adult rats and plated onto poly-D-lysine coated glass coverslips. The plated neurons were transferred into a chamber to allow drug solutions to be added to the cells using a computer-controlled solenoid-valve based perfusion system. The cells were imaged using standard DIC optics. Cells were patched using finely-pulled glass electrodes. Voltage-clamp electrophysiology experiments were carried out using an Axon Instruments Multiclamp amplified controlled by pCLAMP8 software.
# The cells were placed into a whole-cell voltage clamp and help at a voltage of −80 mV while monitoring the membrane current in gap-free recording mode. 500 nM capsaicin was added for 30 seconds as a control. Test compounds at various concentrations at ranging from (10-1000 nM) were added to the cells for 1 minute prior to a 30 second capsaicin application. Differences between control experiments and drug positive capsaicin experiments were used to determine the efficacy of each test compound. All compounds that inhibited capsaicin induced current greater than 50% were considered positives.
row,Compound,dose response of inhibiting a capsaicin induced calcium ion influx (FIG. 4)
1,O=C(NCc1ccc(Cl)c(Cl)c1)c1ccc(-c2ncccc2Cl)cc1 [Compound 24],increasing effectiveness

# Same assay, conditions: DRG neuron; 200 nM, treatment time 25 seconds; 500 nM capsaicin, rat DRG neurons
row,Compound,inhibition at 0.2 µM [%]
1,O=C(NCc1ccc(Cl)c(Cl)c1)c1ccc(-c2ncccc2Cl)cc1 [Compound 24],100
